In patent publication US7468375B2 (Pfizer Inc., priority 2004, dated 2008):
Read-outs that look alike come from different tables or passages of the source.

What was measured:
[1] = target: T1, Full-length wild type HIV-1 integrase (SF1) (Human immunodeficiency virus type 1 group M subtype B, UniProt P04585); assay: Integrase strand-transfer scintillation proximity assay; format: biochemical; settings: strand transfer, 50 min at 37° C., 246 nM integrase, 50 nM host DNA; read-out: IC50
T1 construct: made in house; host or cells: E. coli BL21 (DE3)
Summary of the method: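 Recombinant full-length wild-type HIV-1 integrase (aa 1-288), E. coli-expressed, tested on biotinylated pre-processed U5 LTR viral ds-DNA with CA overhang bound to streptavidin SPA beads. [3H]-thymidine-labelled host ds-DNA serves as target; strand transfer read by scintillation proximity. A 3′ di-deoxy viral DNA control checks non-specific binding.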

[2] = tested on: RF strain of HIV-1 in CEM-SS cells; assay: HIV-1 cell protection assay (XTT dye reduction); format: cell-based; settings: HIV-1 RF, CEM-SS cells, XTT dye reduction, six days, read-out: EC50
Summary of the method: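 CEM-SS cells infected with HIV-1 RF (moi 0.025–0.819) or mock-infected, 2×10^4 cells/well with half-log compound dilutions for six days. Viability by XTT/PMS reduction (4 h), absorbance 450 nm, as % of uninfected untreated cells. Therapeutic index = CC50/EC50.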

[3] = Human immunodeficiency virus 1, CEM-SS, 144 h

Row | Structure (SMILES) | IC50 [1] [nM] | EC50 [2, 3] [nM] | EC50 [2] [nM]
1 | O=C(CC(NCc1cn(Cc2ccc(F)cc2F)c2cnc(C(=O)NO)cc12)C1CC1)NC1CC1 (stereo not drawn) [Example 101, 3-({[1-Cyclopropyl-3-(cyclopropylamino)-3-oxopropyl]amino}methyl)-1-(2,4-difluorobenzyl)-N-hydroxy-1H-pyrrolo[2,3-c]pyridine-5-carboxamide] | 472 | 73 | 
2 | CC(C)N(O)C(=O)c1cc2ccn(Cc3ccc(F)cc3)c2cn1 [Example 27, 1-(4-Fluorobenzyl)-N-hydroxy-N-isopropyl-1H-pyrrolo[2,3-c]pyridine-5-carboxamide] | 8000 | 3500 | 
3 | CN(C)CCNCc1cn(Cc2ccc(F)cc2F)c2cnc(C(=O)NO)cc12 [Example 72, 1-(2,4-Difluorobenzyl)-3-({[2-(dimethylamino)ethyl]amino}methyl)-N-hydroxy-1H-pyrrolo[2,3-c]pyridine-5-carboxamide] | 658 | 29 | 
4 | O=C1CN(Cc2cn(Cc3ccc(F)cc3)c3cnc(C(=O)NO)cc23)CCN1 [Example 15, 1-(4-Fluorobenzyl)-N-hydroxy-3-[(3-oxopiperazin-1-yl)methyl]-1 pyrrolo[2,3-c]pyridine-5-carboxamide] | 41 | 11 | 
5 | CN(CCS(C)(=O)=O)Cc1cn(Cc2ccc(F)cc2F)c2cnc(C(=O)NO)cc12 [Example 95, 1-(2,4-difluorobenzyl)-N-hydroxy-3-({methyl[2-(methylsulfonyl)ethyl]amino}methyl)-1H-pyrrolo[2,3-c]pyridine-5-carboxamide] | 127 | 17 | 
6 | O=C1CN(Cc2cn(Cc3ccc(F)cc3)c3cnc(C(=O)NOCc4ccccc4)cc23)CCN1 [Example 102, N-(Benzyloxy)-1-(4-fluorobenzyl)-3-[(3-oxopiperazin-1-yl)methyl]-1H-pyrrolo[2,3-c]pyridine-5-carboxamide] | 810 | 33 | 
7 | CCN(CCO)Cc1cn(Cc2ccc(F)cc2F)c2cnc(C(=O)NO)cc12 [Example 69, 1-(2,4-Difluorobenzyl)-3-{[ethyl(2-hydroxyethyl)amino]methyl}-N-hydroxy-1H-pyrrolo[2,3-c]pyridine-5-carboxamide] | 755 | 28 | 
8 | O=C(NO)c1cc2c(CNC3CC3c3ccccc3)cn(Cc3ccc(F)cc3F)c2cn1 (racemic) [Example 75, rac-1-(2,4-Difluorobenzyl)-N-hydroxy-3-({[(1S,2R)-2-phenylcyclopropyl]amino}methyl)-1H-pyrrolo[2,3-c]pyridine-5-carboxamide] | 382 | 14 | 
9 | O=C(NO)c1cc2c(CN3CC[C@@H]4C(=O)NC[C@@H]4C3)cn(Cc3ccc(F)cc3F)c2cn1 (racemic) [Example 16, rac 1-(2,4-difluorobenzyl)-N-hydroxy-3-{[(3aR*,7aS*)-1-oxooctahydro-5H-pyrrolo[3,4-c]pyridin-5-yl]methyl}-1H-pyrrolo[2,3-c]pyridine-5-carboxamide] | 108 | 12 | 
10 | CCN1CCCC1CNCc1cn(Cc2ccc(F)cc2F)c2cnc(C(=O)NO)cc12 (stereo not drawn) [Example 62, 1-(2,4-Difluorobenzyl)-3-({[(1-ethylpyrrolidin-2-yl)methyl]amino}methyl)-N-hydroxy-1H-pyrrolo[2,3-c]pyridine-5-carboxamide] | 671 |  | 17
11 | CN1CCCC1CCNCc1cn(Cc2ccc(F)cc2F)c2cnc(C(=O)NO)cc12 (stereo not drawn) [Example 51, 1-(2,4-Difluorobenzyl)-N-hydroxy-3-({[2-(1-methylpyrrolidin-2-yl)ethyl]amino}methyl)-1H-pyrrolo[2,3-c]pyridine-5-carboxamide] | 752 | 230 | 
12 | O=C(NO)c1cc2c(CN3CCS(=O)(=O)CC3)cn(Cc3ccc(F)cc3F)c2cn1 [Example 9, 1-(2,4-Difluorobenzyl)-3-[(1,1-dioxidothiomorpholin-4-yl)methyl]-N-hydroxy-1H-pyrrolo[2,3-c]pyridine-5-carboxamide] | 20 | 7.4 | 
13 | CN(O)C(=O)c1cc2c(COC3CCOCC3)cn(Cc3ccc(F)cc3)c2cn1 [Example 118, 1-(4-Fluorobenzyl)-N-hydroxy-N-methyl-3-[(tetrahydro-2H-pyran-4-yloxy)methyl]-1H-pyrrolo[2,3-c]pyridine-5-carboxamide] | 57 | 313 | 
14 | O=C(NO)c1cc2c(CNCCc3ccc(F)cc3)cn(Cc3ccc(F)cc3F)c2cn1 [Example 85, 1-(2,4-Difluorobenzyl)-3-(J[2-(4-fluorophenyl)ethyl]aminomethyl)-N-hydroxy-1H-pyrrolo[2,3-c]pyridine-5-carboxamide] | 224 | 33 | 
15 | CC1C(=O)NCCN1Cc1cn(Cc2ccc(F)cc2)c2cnc(C(=O)N(C)O)cc12 (stereo not drawn) [Example 33, 1-(4-Fluorobenzyl)-N-hydroxy-N-methyl-3-[(2-methyl-3-oxopiperazin-1-yl)methyl]-1H-pyrrolo[2,3-c]pyridine-5-carboxamide] | 463 | 210 | 
16 | CC(C)(C)[C@@H](CO)NCc1cn(Cc2ccc(F)cc2F)c2cnc(C(=O)NO)cc12 [Example 87, 1-(2,4-Difluorobenzyl)-N-hydroxy-3-({[(1S)-1-(hydroxymethyl)-2,2-dimethylpropyl]amino}methyl)-1H-pyrrolo[2,3-c]pyridine-5-carboxamide] | 814 | 67 | 
17 | CCCN(O)C(=O)c1cc2ccn(Cc3ccc(F)cc3)c2cn1 [Example 28, 1-(4-Fluorobenzyl)-N-hydroxy-N-propyl-1H-pyrrolo[2,3-c]pyridine-5-carboxamide] | 628 | 350 | 
18 | CN(O)C(=O)c1cc2c(CN3CC[C@@H]4C(=O)NC[C@@H]4C3)cn(Cc3ccc(F)cc3F)c2cn1 (racemic) [Example 18, rac 1-(2,4-difluorobenzyl)-N-hydroxy-N-methyl-3-{[(3aR*,7aS*)-1-oxooctahydro-5H-pyrrolo[3,4-c]pyridin-5-yl]methyl}-1H-pyrrolo[2,3-c]pyridine-5-carboxamide] | 470 | 49 | 
19 | O=C(NO)c1cc2c(CNCCN3CCCC3)cn(Cc3ccc(F)cc3F)c2cn1 [Example 57, 1-(2,4-Difluorobenzyl)-N-hydroxy-3-{[(2-pyrrolidin-1-ylethyl)amino]methyl}-1H-pyrrolo[2,3-c]pyridine-5-carboxamide] | 542 | 24 | 
20 | CCC(CC)NCc1cn(Cc2ccc(F)cc2F)c2cnc(C(=O)NO)cc12 [Example 82, 1-(2,4-Difluorobenzyl)-3-{[(1-ethylpropyl)amino]methyl}-N-hydroxy-1H-pyrrolo[2,3-c]pyridine-5-carboxamide] | 634 | 23 | 
21 | CONC(=O)c1ncc2c(ccn2Cc2ccc(F)cc2)c1O [Example 43, 1-(4-Fluorobenzyl)-4-hydroxy-N-methoxy-1H-pyrrolo[2,3-c]pyridine-5-carboxamide] | 371 | 420 | 
22 | O=C(NO)c1cc2c(CNCc3ccc(F)cc3)cn(Cc3ccc(F)cc3F)c2cn1 [Example 70, 1-(2,4-Difluorobenzyl)-3-{[(4-fluorobenzyl)amino]methyl}-N-hydroxy-1H-pyrrolo[2,3-c]pyridine-5-carboxamide] | 332 | 22 | 
23 | CC(C)CN(O)C(=O)c1cc2ccn(Cc3ccc(F)cc3)c2cn1 [Example 29, 1-(4-Fluorobenzyl)-N-hydroxy-N-isobutyl-1H-pyrrolo[2,3-c]pyridine-5-carboxamide] | 1700 | 1400 | 
24 | O=C(NO)c1cc2c(CNCc3ccc(C(F)(F)F)nc3)cn(Cc3ccc(F)cc3F)c2cn1 [Example 88, 1-(2,4-Difluorobenzyl)-N-hydroxy-3-[({[6-(trifluoromethyl)pyridin-3-yl]methyl}amino)methyl]-1H-pyrrolo[2,3-c]pyridine-5-carboxamide] | 238 | 16 | 
25 | CCO/C=C/c1c(C(=O)NO)ncc2c1ccn2Cc1ccc(F)cc1 [Example 38, 4-[(E)-2-Ethoxyvinyl]-1-(4-fluorobenzyl)-N-hydroxy-1H-pyrrolo[2,3-c]pyridine-5-carboxamide] | 145 | 12 | 
26 | O=C(NO)c1cc2c(CNCCO)cn(Cc3ccc(F)cc3F)c2cn1 [Example 3] | 195 |  | 160
27 | CN(O)C(=O)c1cc2c(COCCN3CCCC3=O)cn(Cc3ccc(F)cc3)c2cn1 [Example 117, 1-(4-Fluorobenzyl)-N-hydroxy-N-methyl-3-{[2-(2-oxopyrrolidin-1-yl)ethoxy]methyl}-1H-pyrrolo[2,3-c]pyridine-5-carboxamide] | 200 | 401 | 
28 | O=C(NO)c1cc2c(CNCc3ccccn3)cn(Cc3ccc(F)cc3F)c2cn1 [Example 55, 1-(2,4-Difluorobenzyl)-N-hydroxy-3-{[(pyridin-2-ylmethyl)amino]methyl}-1H-pyrrolo[2,3-c]pyridine-5-carboxamide] | 216 | 20 | 
29 | O=C(NO)c1cc2c(CN[C@H](CO)Cc3c[nH]c4ccccc34)cn(Cc3ccc(F)cc3F)c2cn1 [Example 77, 1-(2,4-Difluorobenzyl)-N-hydroxy-3-({[(1S)-2-hydroxy-1-(1H-indol-3-ylmethyl)ethyl]amino}methyl)-1H-pyrrolo[2,3-c]pyridine-5-carboxamide] | 483 | 360 | 
30 | CC(CO)NCc1cn(Cc2ccc(F)cc2F)c2cnc(C(=O)NO)cc12 (stereo not drawn) [Example 53, 1-(2,4-Difluorobenzyl)-N-hydroxy-3-{[(2-hydroxy-1-methylethyl)amino]methyl}-1H-pyrrolo[2,3-c]pyridine-5-carboxamide] | 359 | 11 | 
